Experimental data: patent US7943606B2, “Compositions and methods to control abnormal cell growth” (CanCure Laboratories, LLC, priority 2005, dated 2011)
Read-outs that look alike come from different tables or passages of the source.

Legend:
CaCO-2 cells = experiment: Viability of CaCO-2 colon adenocarcinoma cells (MTT assay); type: cell-based; settings: Homo sapiens, Caco-2, 240 h, 10 days, read-out: reduction in the number of viable cells, CaCO-2
Description: (§1) To quantify cell death, around the time when significant and characteristic morphological changes took place, cells were pulse-labeled for 10 minutes with [^3H]thymidine to measure DNA activity as described elsewhere [Tomono, M. and Kiss, Z. (1995), “Ethanol enhances the stimulatory effects of insulin and insulin-like growth factor-I on DNA synthesis in NIH 3T3 fibroblasts,” Biochem. Biophys. Res. Commun. 208, 63-67]. Also, cells were collected as suspensions using trypsin, an established method in cell biology, followed by re-plating of cells in fresh tissue culture medium. If no viable cells were obtained after one week in culture, it meant that the cells at the time of re-plating were dead. Survival values obtained with untreated cells were considered 100%. For the determination of relative number of viable cells after treatments, in most cases the MTT assay was used. This calorimetric assay is based on the ability of living cells, but not dead cells, to reduce 3-(4,5-dimethyl thiazol-2-yl)-2,5-diphenyltetrazolium bromide [Carmichael, J, De Graff, W. G., Gazdar, A. F., Minna, J. D. and Mitchell, J. B. (1987), “Evaluation of tetrazolium-based semi-automated calorimetric assay: Assessment of chemosensitivity testing,” Cancer Res. 47, 936-942]. For this assay, cells were plated in 96-well plates, and the MTT assay was performed both in untreated and treated cell cultures. […]

HepG2 cells = experiment: Viability of HepG2 hepatoblastoma cells (MTT assay); type: cell-based, human; settings: 50 and 100 μM, 10 days
Description: as §1

MCF-7 cells = experiment: Viability of MCF-7 breast cancer cells; type: cell-based, human
Description: (§2) To quantify cell death, around the time when significant and characteristic morphological changes took place, cells were pulse-labeled for 10 minutes with [^3H]thymidine to measure DNA activity as described elsewhere [Tomono, M. and Kiss, Z. (1995), “Ethanol enhances the stimulatory effects of insulin and insulin-like growth factor-I on DNA synthesis in NIH 3T3 fibroblasts,” Biochem. Biophys. Res. Commun. 208, 63-67]. Also, cells were collected as suspensions using trypsin, an established method in cell biology, followed by re-plating of cells in fresh tissue culture medium. If no viable cells were obtained after one week in culture, it meant that the cells at the time of re-plating were dead. Survival values obtained with untreated cells were considered 100%. For the determination of relative number of viable cells after treatments, in most cases the MTT assay was used. This calorimetric assay is based on the ability of living cells, but not dead cells, to reduce 3-(4,5-dimethyl thiazol-2-yl)-2,5-diphenyltetrazolium bromide [Carmichael, J, De Graff, W. G., Gazdar, A. F., Minna, J. D. and Mitchell, J. B. (1987), “Evaluation of tetrazolium-based semi-automated calorimetric assay: Assessment of chemosensitivity testing,” Cancer Res. 47, 936-942]. For this assay, cells were plated in 96-well plates, and the MTT assay was performed both in untreated and treated cell cultures. The MTT assay also was performed at the start of treatments to allow assessment of proliferation rates in the control and treated cell cultures.
About 50% confluent cultures of MCF-7 cells, cultured in 12-well plates in Dulbecco's modified Eagle's medium (DMEM) supplemented with 10% FBS, were either untreated (FIG. 3A), or were treated with 100 μM CCDTHT (CCompound3) for 72 hours (FIG. 3B). […] This experiment was repeated three times with similar results. In some experiments, cells from the CCDTHT-treated cultures were seeded into 96-well plates, and the MTT assay was performed 96 hours later to test for viable cells.
(§3) The NIH 3T3 (normal) mouse fibroblast, A431 human epidermoid adenocarcinoma, and MCF-7 human breast cancer cells were cultured in DMEM medium containing 10% FBS. The MEL-28 human melanoma cells were cultured in MEM medium containing 10% FBS. The HT-29 human colon adenocarcinoma cells were cultured in McCoy's 5a medium containing 10% FBS. The A549 human lung carcinoma cells were maintained in Ham's F12K medium containing 10% FBS. Cells were seeded into 96-well plates and treated at ˜70-90% confluency. Two hours before treatments the medium was changed for fresh 10% serum medium, and then the cells were incubated for 72 hours in the presence of 0-200 μM of CCompound1 (●) or CCompound3 (CCDTHT) (▴), as indicated. The MTT assay was used to determine cell viability after treatments. The values, shown in FIGS. 5A-5F and expressed as percent decrease in viability compared to the untreated control cells, are the mean±std. dev. of 8 incubations in one experiment. Similar results were obtained in another experiment.
NIH 3T3, AN3CA, HT-29, MEL-28, and MCF-7 cells were cultured as described earlier. Cells were seeded into 96-well plates; when cells were ˜80-90% confluent, the medium was changed for fresh 10% serum-containing medium, followed by incubations for 72 hours in the absence (□) or presence of 100 μM CCDTHT ? , 2 mM ethanolamine (Etn) ? , or 100 μM CCDTHT+2 mM Etn (▪). The MTT assay was used to determine cell viability. […]

[1] = Viability of NIH 3T3 normal fibroblasts (MTT assay); type: cell-based; settings: mouse
Description: as §2, §3
NIH3T3, T47D, A-431, HT-29, and MEL-28 cells were cultured as indicated earlier. CaOV-3 human ovarian cancer cells were cultured in DMEM containing 10% FBS. ZR-75-1 human estrogen receptor-positive breast cancer cells were maintained in RPMI 1640 medium supplemented with 10% FBS. HTB-157 human fetal fibroblasts, MEL-24 human malignant melanoma cells, Hep G2 human hepatoblastoma cells, and CaCO-2 human colon adenocarcinoma cells were maintained in Eagles's MEM containing 10% FBS. MB-231 human estrogen receptor-negative breast cancer cells were maintained in Leibovitz's L-15 medium supplemented with 10% FBS. Cells were seeded into 96-well plates and treated at ˜70-90% confluency. Two hours prior to treatments the medium was changed for fresh 10% serum medium, and then the cells were incubated for 10 days in the absence (□) or presence of 50 μM CCDTHT ? or 100 μM CCDTHT (▪). The medium was changed and the cells were re-treated on days 3 and 6. The MTT assay was used to determine cell viability on day 10. The data, shown in FIG. 6, are the mean±std. dev. of 8 incubations in one experiment. (The experiment was repeated twice with similar results).
NIH 3T3, MEL-28, MEL-24, CaOV-3, ZR-75-1, and T47D cells were cultured as described above. The OVCAR human ovarian cancer cells were cultured in DMEM containing 10% FBS. Cells were seeded into 96-well plates and used at ˜60-80% confluency. […]

[2] = system: HL-60, HT-168, PC-3 and T47D human tumor xenografts; experiment: Growth of HL-60, HT-168, PC-3 and T47D human tumor xenografts in mice; type: in vivo, mouse
Description: Tumor volume was calculated according to the generally accepted formula: V=a^2×b×π/6, where “a” and “b” mean the shortest and longest diameter, respectively, of the measured tumor.

U-87 cells = experiment: Viability of U-87 malignant glioma cells (MTT assay); type: cell-based, human; settings: 100-200 μM, 72 hours
Description: as §1

Structure (SMILES): CC[N+](C)(CC)CCOCc1ccc2sc3ccccc3c(=O)c2c1.[I-] [CCDTHT, N,N-diethyl-N-methyl-2-[(9-oxo-9H-thioxanthen-2-yl)methoxy]-ethanaminium iodide]
- cytotoxicity at 100 µM (CaCO-2 cells): ≤ 50%
- sensitivity to the inhibitory actions, HepG2 (HepG2 cells): moderately sensitive
- decrease in viability, MCF-7 (MCF-7 cells; 0-200 μM, 72 hours, MTT): similarly large effects
- viable cells by MTT after re-seeding treated MCF-7 cells (MCF-7 cells; 100 μM 72 hours, re-seeded, MTT 96 hours later): did not detect viable cells
- morphology / cell death, MCF-7 (MCF-7 cells; 100 μM, 72 hours, 12-well plates): practically all cells rounded up
- cytotoxicity at 10 days, 100 μM [1]: ≤ 50%
- weight loss ([2]; 50-400 μmole s.c. once daily): In none of the cases did CCDTHT cause significant weight loss
- growth of each tumor (HL-60, HT-168, PC-3, T47D) ([2]; 200-400 μmole s.c. once daily): considerably reduced
- solubility in water (Solubility in water): sufficiently soluble in water for injection
- solubility in water (Solubility in water; listed as CCompound3): soluble in water
- number of viable U-87 cells (U-87 cells): sharply decrease
